Source: ChEMBL document CHEMBL1154494, “A highly sensitive fluorogenic probe for cytochrome P450 activity in live cells” (Bioorg Med Chem Lett, 2008)
Calls of active or inactive are those of the source. The calls are words filed in the database; no cut-off is given here.

B1: Cytochrome P450 1A1 (Homo sapiens) (protein)
chain: MLFPISMSATEFLLASVIFCLVFWVIRASRPQVPKGLKNPPGPWGWPLIGHMLTLGKNPHLALSRMSQQYGDVLQIRIGSTPVVVLSGLDTIRQALVRQGDDFKGRPDLYTFTLISNGQSMSFSPDSGPVWAARRRLAQNGLKSFSIASDPASSTSCYLEEHVSKEAEVLISTLQELMAGPGHFNPYRYVVVSVTNVICAICFGRRYDHNHQELLSLVNLNNNFGEVVGSGNPADFIPILRYLPNPSLNAFKDLNEKFYSFMQKMVKEHYKTFEKGHIRDITDSLIEHCQEKQLDENANVQLSDEKIINIVLDLFGAGFDTVTTAISWSLMYLVMNPRVQRKIQEELDTVIGRSRRPRLSDRSHLPYMEAFILETFRHSSFVPFTIPHSTTRDTSLKGFYIPKGRCVFVNQWQINHDQKLWVNPSEFLPERFLTPDGAIDKVLSEKVIIFGMGKRKCIGETIARWEVFLFLAILLQRVEFSVPLGVKVDMTPIYGLTMKHACCEHFQMQLRS

Experiments:
A549 [1] = assay: Induction of CYP1A1 level in human A549 cells at 10 uM after 1 hr using Hoechst staining by fluorogenic assay; assay type: functional, cell-based
A549 [2] = assay: Inhibition of CYP1A1 level in human A549 cells at 10 uM after 1 hr using Hoechst staining by fluorogenic assay in presence of CYP1A1 inducer TCDD and CYP1A1 inhibitior resveratrol; assay type: functional, cell-based
A549 [3] = assay: Induction of CYP1A1 level in human A549 cells at 10 uM after 1 hr using Hoechst staining by fluorogenic assay in presence of CYP1A1 inducer TCDD; assay type: functional, cell-based
[4] = substrate: CCOc1cc(C)cc(C)c1C(C)(C)CC(=O)Nc1ccc2c(c1)Oc1cc(NC(=O)N3CCOCC3)ccc1C21Oc2ccccc2C1=O; assay: Activity of human CYP1A1 by fluorogenic assay; assay type: ADME

| Molecule | Activity (A549 [1]) | Activity (A549 [2]) | Activity (A549 [3]) | Km [4] | kcat/Km [4] |
| --- | --- | --- | --- | --- | --- |
| CCOc1cc(C)cc(C)c1C(C)(C)CC(=O)Nc1ccc2c(c1)Oc1cc(NC(=O)N3CCOCC3)ccc1C21OC(=O)c2ccccc21 (stereo not given) | Active | Active | Active | – | – |
| B1 | – | – | – | 0.09 µM | 8800 M⁻¹ s⁻¹ |
